This note sets out measurements from ChEMBL document CHEMBL3301562, “MMV Box screening against Plasmodium falciparum protein kinases and aminoacyl tRNA synthetases”.

What all share (type): functional
Assay [1] deals with T1, Cdk-related protein kinase 6 (Plasmodium falciparum, UniProt O77239).
T1 sequence (O77239 whole entry): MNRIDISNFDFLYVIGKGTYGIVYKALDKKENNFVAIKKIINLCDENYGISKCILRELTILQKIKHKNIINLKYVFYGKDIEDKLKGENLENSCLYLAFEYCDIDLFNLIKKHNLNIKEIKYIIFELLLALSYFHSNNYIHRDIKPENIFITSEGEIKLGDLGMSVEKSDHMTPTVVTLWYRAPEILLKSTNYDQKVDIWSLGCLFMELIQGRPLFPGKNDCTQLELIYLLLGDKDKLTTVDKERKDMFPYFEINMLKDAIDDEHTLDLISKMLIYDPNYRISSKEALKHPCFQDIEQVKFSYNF
The assay is described as follows: Final concentrations were 1.5 uM ATP, 5 mM MnCl2, and 15 ug/ml PK6 in a buffer of 100 mM Tris-HCl (pH 7.5). 50 ug/mL MBP was provided as the substrate; 10 uM staurosporine was used as a control inhibitor. Incubation time was 3 hours and 40 minutes.The catalytic activity of each kinase was considered proportional to ATP consumed, as determined from measurements of residual [ATP] with the luciferase-based reagent Kinase-Glo (Promega) following incubation. Luminescence (proportional to residual [ATP]) was measured on the plate readers FLx800 (BioTek Instruments, Winooski, VT, USA) and MicroBeta2. On the technique in general: In Kinase-Glo more light means more ATP remaining.

Another assay concerns the target Lysine--tRNA ligase (Plasmodium falciparum (isolate 3D7), UniProt Q8IDJ8). The assay is described as follows: MMV: KRS recombinant Plasmodium falciparum Lysyl-tRNA-synthetase, assay with yeast tRNA, ATP, and lysine and 3 uM MMV malaria box compound, assay read out with kinase glo as % inhibition.
The target in assay [2] is Calcium-dependent protein kinase 1 (Plasmodium falciparum, UniProt P62344). The assay is described as follows: MMV: CDPK1 Protein kinase inhibition assay using recombinant PfCDPK1, syntide 2 peptide substrate, ATP and KinaseGlo to measure % inhibition at 1 uM MMV box compound.
The next assay has as its target T2, Proline--tRNA ligase (Plasmodium falciparum (isolate 3D7), UniProt Q8I5R7).
T2 sequence (Q8I5R7 whole entry): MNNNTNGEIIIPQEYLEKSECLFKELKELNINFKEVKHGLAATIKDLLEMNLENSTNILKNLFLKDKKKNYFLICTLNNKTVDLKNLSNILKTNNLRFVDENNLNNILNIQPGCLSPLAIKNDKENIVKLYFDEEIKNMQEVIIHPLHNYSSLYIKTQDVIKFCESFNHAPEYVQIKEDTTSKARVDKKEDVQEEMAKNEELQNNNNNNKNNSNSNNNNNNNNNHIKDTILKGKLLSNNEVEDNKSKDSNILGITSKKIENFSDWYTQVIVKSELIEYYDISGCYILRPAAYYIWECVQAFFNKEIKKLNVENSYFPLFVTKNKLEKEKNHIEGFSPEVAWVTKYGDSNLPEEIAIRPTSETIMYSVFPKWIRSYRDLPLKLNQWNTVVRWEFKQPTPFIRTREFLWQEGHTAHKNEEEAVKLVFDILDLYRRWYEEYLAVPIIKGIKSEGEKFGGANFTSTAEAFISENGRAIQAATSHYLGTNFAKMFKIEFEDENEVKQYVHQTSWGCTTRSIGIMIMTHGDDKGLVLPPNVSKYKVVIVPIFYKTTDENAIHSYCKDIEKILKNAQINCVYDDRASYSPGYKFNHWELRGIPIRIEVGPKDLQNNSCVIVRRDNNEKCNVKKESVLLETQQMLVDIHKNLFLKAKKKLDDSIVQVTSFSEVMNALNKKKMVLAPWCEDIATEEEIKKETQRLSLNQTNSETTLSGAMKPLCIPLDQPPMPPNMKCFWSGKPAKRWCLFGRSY
The assay is described as follows: MMV: ProRS recombinant Plasmodium falciparum Prolyl-tRNA-synthetase, assay with yeast tRNA, ATP, and proline and 3 uM MMV malaria box compound, assay read out with kinase glo as % inhibition.

In assay [3] the target is T3, Putative uncharacterized protein pk7 (Plasmodium falciparum, UniProt O96214).
T3 sequence (O96214 whole entry): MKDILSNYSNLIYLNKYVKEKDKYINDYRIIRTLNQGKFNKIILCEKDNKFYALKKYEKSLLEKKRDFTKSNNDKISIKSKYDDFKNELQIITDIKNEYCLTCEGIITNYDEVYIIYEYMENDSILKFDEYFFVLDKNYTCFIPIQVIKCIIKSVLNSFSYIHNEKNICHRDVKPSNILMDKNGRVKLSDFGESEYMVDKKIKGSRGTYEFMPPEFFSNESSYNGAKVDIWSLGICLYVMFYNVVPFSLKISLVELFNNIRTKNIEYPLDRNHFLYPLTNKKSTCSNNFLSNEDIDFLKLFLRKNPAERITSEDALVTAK
Put plainly: Final concentrations were 1 uM ATP, 2 mM DTT, 20 mM MgCl2, 2 mM MnCl2, 0.01% BSA, and 6 ug/ml PK7, in a buffer of 20 mM Tris-HCl (pH 7.5). The enzyme itself was the only substrate present (since autophosphorylation occurs); 100 uM 1NA-PP1 was used as a control inhibitor. Incubation time was 3 hours.

Assay [4] concerns the target T4, Calcium-dependent protein kinase 4 (Plasmodium falciparum (isolate 3D7), UniProt Q8IBS5).
T4 sequence (Q8IBS5 whole entry): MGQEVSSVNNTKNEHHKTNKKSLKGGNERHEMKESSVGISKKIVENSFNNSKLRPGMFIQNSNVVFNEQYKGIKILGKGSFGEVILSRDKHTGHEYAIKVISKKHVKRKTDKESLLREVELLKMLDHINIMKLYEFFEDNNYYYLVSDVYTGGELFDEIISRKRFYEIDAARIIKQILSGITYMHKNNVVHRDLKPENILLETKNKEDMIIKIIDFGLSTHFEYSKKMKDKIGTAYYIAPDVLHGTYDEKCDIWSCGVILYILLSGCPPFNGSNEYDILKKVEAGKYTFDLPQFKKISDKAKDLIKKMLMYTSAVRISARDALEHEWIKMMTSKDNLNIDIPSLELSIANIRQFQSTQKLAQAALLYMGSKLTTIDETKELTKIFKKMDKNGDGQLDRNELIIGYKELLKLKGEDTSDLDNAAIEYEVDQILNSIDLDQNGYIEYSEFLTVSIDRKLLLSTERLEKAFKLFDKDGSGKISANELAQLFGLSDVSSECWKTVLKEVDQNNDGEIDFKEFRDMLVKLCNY
Put plainly: MMV: CDPK4 Protein kinase inhibition assay using recombinant PfCDPK4, syntide2 peptide substrate, ATP and KinaseGlo to measure % inhibition at 1 uM MMV box compound.

In assay [5] the target is T5, Mitogen-activated protein kinase (Plasmodium falciparum, UniProt Q25917).
T5 sequence (Q25917 whole entry): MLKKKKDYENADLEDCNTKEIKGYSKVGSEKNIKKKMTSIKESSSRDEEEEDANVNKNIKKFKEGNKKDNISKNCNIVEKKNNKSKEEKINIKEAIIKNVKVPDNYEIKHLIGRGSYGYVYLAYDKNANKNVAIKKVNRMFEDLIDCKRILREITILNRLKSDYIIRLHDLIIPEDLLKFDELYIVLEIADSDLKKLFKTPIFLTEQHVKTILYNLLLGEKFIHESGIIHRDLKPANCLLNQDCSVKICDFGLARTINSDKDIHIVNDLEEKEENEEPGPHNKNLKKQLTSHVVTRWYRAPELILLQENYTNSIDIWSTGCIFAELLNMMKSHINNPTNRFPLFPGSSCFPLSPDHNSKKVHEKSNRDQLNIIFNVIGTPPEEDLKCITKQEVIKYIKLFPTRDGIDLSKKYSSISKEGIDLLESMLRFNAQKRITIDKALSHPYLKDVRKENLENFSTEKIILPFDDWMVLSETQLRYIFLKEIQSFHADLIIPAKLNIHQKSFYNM
Put plainly: Final concentrations were 1 uM ATP, 0.5 mM DTT, 1 mM MgCl2, 0.5 mg/mL BSA, and 10 ug/ml MAP2 in a buffer of 50 mM HEPES (pH 7.0). 0.5 mg/mL histone III-S served as the substrate (13); 100 uM AMP-PNP, an ATP analog, was used as a control inhibitor. Incubation time was 4 hours.

The structures appear in SMILES notation. A value given as a limit tells only on which side of the number the result lay.

Chain of Calcium-dependent protein kinase 1 (P62344 whole entry): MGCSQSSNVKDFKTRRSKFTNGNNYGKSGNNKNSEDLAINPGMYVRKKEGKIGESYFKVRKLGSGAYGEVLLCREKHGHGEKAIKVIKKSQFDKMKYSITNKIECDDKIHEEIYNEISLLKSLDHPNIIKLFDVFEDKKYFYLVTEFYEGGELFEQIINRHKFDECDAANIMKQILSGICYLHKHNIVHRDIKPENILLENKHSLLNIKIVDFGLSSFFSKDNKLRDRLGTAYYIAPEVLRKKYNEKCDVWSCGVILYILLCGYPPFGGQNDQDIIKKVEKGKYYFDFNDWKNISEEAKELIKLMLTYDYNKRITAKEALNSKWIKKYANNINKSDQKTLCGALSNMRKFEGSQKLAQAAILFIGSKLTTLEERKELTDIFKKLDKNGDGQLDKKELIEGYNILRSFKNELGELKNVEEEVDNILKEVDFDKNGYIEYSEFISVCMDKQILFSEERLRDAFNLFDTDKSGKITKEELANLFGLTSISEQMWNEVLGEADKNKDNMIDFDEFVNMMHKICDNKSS
Chain of Lysine--tRNA ligase (Q8IDJ8 whole entry): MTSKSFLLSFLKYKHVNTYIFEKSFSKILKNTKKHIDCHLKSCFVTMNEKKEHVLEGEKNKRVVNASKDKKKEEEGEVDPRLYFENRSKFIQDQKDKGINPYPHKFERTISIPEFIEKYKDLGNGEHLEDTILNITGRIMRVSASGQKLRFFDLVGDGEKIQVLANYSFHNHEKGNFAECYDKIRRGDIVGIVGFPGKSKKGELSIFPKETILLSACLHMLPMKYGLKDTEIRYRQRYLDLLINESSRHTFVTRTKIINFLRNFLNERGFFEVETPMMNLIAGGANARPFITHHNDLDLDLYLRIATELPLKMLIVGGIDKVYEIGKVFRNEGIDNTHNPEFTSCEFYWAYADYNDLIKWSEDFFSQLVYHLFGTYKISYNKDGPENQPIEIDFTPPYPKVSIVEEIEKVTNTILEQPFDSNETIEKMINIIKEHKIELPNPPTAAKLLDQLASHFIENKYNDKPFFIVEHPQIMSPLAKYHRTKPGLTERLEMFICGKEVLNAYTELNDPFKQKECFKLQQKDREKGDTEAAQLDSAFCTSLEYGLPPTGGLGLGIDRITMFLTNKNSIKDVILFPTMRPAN

For orientation: IC50 means the concentration at which inhibition is half-maximal. Consider `COc1cccc(Cn2c(Oc3ccccc3)nc3c2c(=O)n(C)c(=O)n3C)c1`, for which the IC50 is over 1 µM in assay [1]; over 2.5 µM at Lysine--tRNA ligase; over 1 µM in assay [2]; over 2.5 µM on Proline--tRNA ligase; over 1 µM in assay [3]; over 1 µM in assay [4]. This molecule also registered an IC50 in assay [5] of over 1 µM.
Turning to `CCOc1ccccc1CN1CCc2nc3cc(C(C)(C)C)nn3c(O)c2C1`, the IC50 in assay [1] is over 1 µM; on Lysine--tRNA ligase it was over 2.5 µM; in assay [2], over 1 µM; on Proline--tRNA ligase, over 2.5 µM; in assay [3], over 1 µM; in assay [4], over 1 µM. In assay [5], this molecule registered an IC50 of over 1 µM.
Consider `CN(C)CCNc1cc(-c2ccccc2)nc2ccccc12`, for which the IC50 in assay [1] was over 1 µM; at Lysine--tRNA ligase it was over 2.5 µM; in assay [2], over 1 µM; at Proline--tRNA ligase it was over 2.5 µM; in assay [3] it was over 1 µM; in assay [4], over 1 µM. Moreover, in assay [5], the IC50 was over 1 µM.
Regarding `COc1ccc2nc(C)cc(Nc3cccc(O)c3)c2c1`, the IC50 in assay [1] was over 1 µM; at Lysine--tRNA ligase, over 2.5 µM; in assay [2], over 1 µM; on Proline--tRNA ligase, over 2.5 µM; in assay [3] it was over 1 µM; in assay [4], over 1 µM. Also, the IC50 in assay [5] is over 1 µM.
For `Cc1sc2ncnc(Sc3nc4ccccc4[nH]3)c2c1C`, the half-inhibitory concentration (IC50) is over 1 µM in assay [1]; over 2.5 µM at Lysine--tRNA ligase; over 1 µM in assay [2]; over 2.5 µM on Proline--tRNA ligase; over 1 µM in assay [3]; over 1 µM in assay [4]. The concentration for half-maximal inhibition (IC50) in assay [5] was over 1 µM.
Regarding `CCOc1ccccc1NC(=O)CN1CCN(C(=O)c2ccco2)CC1`, the IC50 in assay [1] was over 1 µM; on Lysine--tRNA ligase it was over 2.5 µM; in assay [2], over 1 µM; on Proline--tRNA ligase it was over 2.5 µM; in assay [3], over 1 µM; in assay [4] it was over 1 µM. This molecule yielded a concentration for half-maximal inhibition (IC50) in assay [5] of over 1 µM.
Consider `CCOc1cc2c(cc1OCC)C(c1cc(C)c(O)c(C)c1)NCC2` (stereo not given), for which the half-inhibitory concentration (IC50) in assay [1] was over 1 µM; on Lysine--tRNA ligase it was over 2.5 µM; in assay [2], over 1 µM; on Proline--tRNA ligase, over 2.5 µM; in assay [3], over 1 µM; in assay [4] it was over 1 µM. In assay [5], this molecule had an IC50 of over 1 µM.
In the case of `CC(C)c1ccc(CNCC(O)c2ccccc2)cc1` (stereo not given), the IC50 is over 1 µM in assay [1]; over 2.5 µM on Lysine--tRNA ligase; over 1 µM in assay [2]; over 2.5 µM at Proline--tRNA ligase; over 1 µM in assay [3]; over 1 µM in assay [4]. In assay [5], this molecule returned an IC50 of over 1 µM.
In the case of `Oc1ccc(Br)cc1CN1CCN(Cc2cccc(F)c2)CC1`, the IC50 in assay [1] is over 1 µM; at Lysine--tRNA ligase, over 2.5 µM; in assay [2] it was over 1 µM; at Proline--tRNA ligase it was over 2.5 µM; in assay [3], over 1 µM; in assay [4], over 1 µM. The molecule further had an IC50 in assay [5] of over 1 µM.
Consider `CN(C)c1ccc(N2C(N)=NC(N)=NC2(C)C)cc1`, for which the IC50 was over 1 µM in assay [1]; over 2.5 µM on Lysine--tRNA ligase; over 1 µM in assay [2]; over 2.5 µM at Proline--tRNA ligase; over 1 µM in assay [3]; over 1 µM in assay [4]. The IC50 in assay [5] was over 1 µM.
As to `Oc1c(CN2CCN(c3ccccc3F)CC2)cc(Br)c2cccnc12`, the half-inhibitory concentration (IC50) is over 1 µM in assay [1]; over 2.5 µM at Lysine--tRNA ligase; over 1 µM in assay [2]; over 2.5 µM at Proline--tRNA ligase; over 1 µM in assay [3]; over 1 µM in assay [4]. This molecule also registered an IC50 in assay [5] of over 1 µM.
Take `Clc1ccc2c(N3CCCC3)ccnc2c1`: the concentration for half-maximal inhibition (IC50) was over 1 µM in assay [1]; over 2.5 µM on Lysine--tRNA ligase; over 1 µM in assay [2]; over 2.5 µM at Proline--tRNA ligase; over 1 µM in assay [3]; over 1 µM in assay [4]. Moreover, in assay [5], the IC50 was over 1 µM.
Consider `O=c1c2c([nH]c3ccccc13)CCCC2`, for which the IC50 was over 1 µM in assay [1]; over 2.5 µM on Lysine--tRNA ligase; over 1 µM in assay [2]; over 2.5 µM on Proline--tRNA ligase; over 1 µM in assay [3]; over 1 µM in assay [4]. In addition, the concentration for half-maximal inhibition (IC50) in assay [5] was over 1 µM.
For `Cc1c(C)n(CC(O)CNC2CCCCC2C)c2ccccc12` (stereo not given), the IC50 in assay [1] was over 1 µM; on Lysine--tRNA ligase, over 2.5 µM; in assay [2], over 1 µM; on Proline--tRNA ligase it was over 2.5 µM; in assay [3] it was over 1 µM; in assay [4] it was over 1 µM. Also, in assay [5], the concentration for half-maximal inhibition (IC50) is over 1 µM.
For `CCCCN(CCCC)S(=O)(=O)c1ccc(NC(=O)c2ccco2)cc1`, the IC50 is over 1 µM in assay [1]; over 2.5 µM at Lysine--tRNA ligase; over 1 µM in assay [2]; over 2.5 µM on Proline--tRNA ligase; over 1 µM in assay [3]; over 1 µM in assay [4]. Further, the IC50 in assay [5] was over 1 µM.
